Data taken from patent publication US11999746B2, “Compounds” (GlaxoSmithKline Intellectual Property Development Limited, priority 2014, dated 2024).

These compounds were tested against T1, recombinant human Lp-PLA2 (Homo sapiens, UniProt Q13093) (assay: (1a) PED6 assay, recombinant human Lp-PLA2 (rhLp-PLA2)). Conditions: Examples 1-167 and 413-430 were tested here, one experiment or average of multiple experiments, read-out: rhLp-PLA2 (pIC50) (converted).
T1 sequence (Q13093 22-441): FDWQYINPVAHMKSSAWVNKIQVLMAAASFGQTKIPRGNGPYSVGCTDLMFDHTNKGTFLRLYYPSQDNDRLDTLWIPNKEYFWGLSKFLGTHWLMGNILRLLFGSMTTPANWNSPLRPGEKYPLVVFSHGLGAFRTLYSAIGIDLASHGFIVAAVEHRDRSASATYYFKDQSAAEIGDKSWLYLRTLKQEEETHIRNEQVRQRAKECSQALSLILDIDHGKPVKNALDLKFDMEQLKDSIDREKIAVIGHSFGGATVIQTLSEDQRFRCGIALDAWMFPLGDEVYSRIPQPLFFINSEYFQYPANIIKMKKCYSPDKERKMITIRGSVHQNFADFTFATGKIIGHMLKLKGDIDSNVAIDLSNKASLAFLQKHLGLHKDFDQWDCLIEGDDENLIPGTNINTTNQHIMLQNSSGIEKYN
Format: biochemical
Excerpt: (1) Recombinant Human Lp-PLA2 Assays (rhLp-PLA2)
N-((6-(2,4-Dinitrophenyl)amino)-hexanoyl)-2-(4,4-difluoro-5,7-dimethyl-4-bora-3a,4a-diaza-s-indacene-3-pentanoyl)-1-hexadecanoyl-sn-glycero-3-phosphoethanolamine, triethylammonium salt (PED6) is a commercially available fluorescently-labeled phospholipid, which is commercially available from Invitrogene and Molecular Probes. There is a quenching […] and a Bodipy fluorescein (FL) group in the sn2 position. Upon cleavage with Lp-PLA2, the Bodipy FL group is liberated and then may result in an increase in fluorescence. Inhibitors of Lp-PLA2 therefore prevent this cleavage and no fluorescent increase is observed.
The PED6 assay was run as an unquenched 10 μL assay. The source plate containing the compounds to be tested was prepared by making 1:3 (by volume) serial dilution of the compounds within DMSO on 384-well microplate. Then, 0.01 μL of the compounds on compound source plate were transferred into 384 well Greiner 784076 (black) plates using ECHO liquid dispenser. 5 μL of recombinant human Lp-PLA2 enzyme (4 nM) rhLp-PLA2 in assay buffer of 50 mM HEPES, pH 7.4, 150 mM NaCl, 1 mM CHAPS) was added to each well of the plate. Plates were centrifuged for 10 sec at 500 rpm. After 30 minutes preincubation, 5 μL of substrate (4 μM PED6 [from 5 mM DMSO stock] in assay buffer of 50 mM HEPES, pH 7.4, 150 mM NaCl, 1 mM CHAPS) was added to 384 well Greiner 784076 (black) plates. Plates were centrifuged for 10 sec at 500 rpm. The plate was covered to protect it from light and incubated for 20 min at room temperature. The plates were read for fluorescence intensity at ex: 480/em: 540 using ViewLux microplate imager for Envision spectrofluroimeters. pIC50 data, curve and QC analysis was conducted by using XL fit module in Excel.

| SMILES | IC50 [µM] |
| --- | --- |
| N#Cc1ccc(COc2cc3n(c(=O)n2)CC2CCCCN32)cc1 (centres unmarked) [Example E4, 4-(((1-Oxo-6,7,8,9,9a,10-Hexahydro-1H-pyrido[1′,2′:3,4]imidazo[1,2-c]pyrimidin-3-yl)oxy)methyl)benzonitrile] | ≤ 10 |
| O=c1nc(OCc2ccc(C(F)(F)F)c(Cl)c2)cc2n1CC1CCCCN21 (centres unmarked) [Example E7, 3-((3-Chloro-4-(trifluoromethyl)benzyl)oxy)-6,7,8,9,9a,10-hexahydro-1H-pyrido[1′,2′:3,4] imidazo[1,2-c]pyrimidin-1-one] | ≤ 10 |
| Cc1ccc(COc2cc3n(c(=O)n2)CC2CCCCN32)cc1 (centres unmarked) [Example E9, 3-((4-Methylbenzyl)oxy)-6,7,8,9,9a,10-hexahydro-1H-pyrido[1,2′:3,4]imidazo[1,2-c] pyrimidin-1-one] | ≤ 10 |
| O=c1nc(OCc2ccc(F)c(C(F)(F)F)c2)cc2n1CC1CCCCN21 (centres unmarked) [Example E13, 3-((4-Fluoro-3-(trifluoromethyl)benzyl)oxy)-6,7,8,9,9a,10-hexahydro-1H-pyrido-[1′,2′:3,4] imidazo[1,2-c]pyrimidin-1-one] | ≤ 10 |

These compounds were tested against T2, Lp-PLA2 in human plasma (Homo sapiens, UniProt Q13093) (assay: (3a) Lp-PLA2 human plasma Thio-PAF assay). Conditions: (3a) Thio-PAF assay, pooled human plasma; Examples 1-265 and 413-430 were tested here; read-out: pIC50 in the Lp-PLA2 human plasma assay (converted).
T2 construct: from tissue; host or cells: pooled human plasma
T2 sequence (Q13093 22-441): T1 sequence (Q13093 22-441)
Format: biochemical
Excerpt: (3) Lipoprotein-Associated Phospholipase A2 (Lp-PLA2) Human Plasma Assay
The human plasma assay utilizes a thioester analog of PAF (phosphatidylcholine), where hydrolysis yields to the formation of a phospholipid containing a free thiol group. The amount of thiol is quantitated continuously by reacting with CPM (7-diethylamino-3-(4′-maleimidylphenyl)-4-methylcoumarin), a maleimide which increases in fluoresence after Michael addition of thiols. This assay may detect the activity of Lp-PLA2 in human plasma, as determined by specific inhibition by Lp-PLA2 inhibitors.
The thio-PAF assay was run as a quenched 15 μL assay. Compounds source plate was prepared by making 1:3 (by volume) serial dilution of the compounds into pure DMSO on 384-well microplate. 0.01 μL of compounds on compound source plate were transferred to 384 well Greiner 784076 (black) low-volume plates by ECHO liquid dispenser. 8 μL pooled human plasma, which was previously aliquoted and frozen, was added. Plates were centrifuged for 10 sec at 500 rpm. After 30 minutes preincubation, 2 μL of substrate solution comprising 2.5 mM 2-thio-PAF [from ethanol stock], 32 μM CPM [from a DMSO stock] and 3.2 mM NEM (N-ethylmaleimide) [made fresh daily in DMSO] in assay buffer of 50 mM HEPES, pH 7.4, 150 mM NaCl, 1 mM CHAPS was added to 384 well Greiner 784076 (black) low-volume plates by BRAVO liquid handling station. After 2 mins, reaction was quenched with 5 μL of 5% aqueous trifluoroacetic acid (TFA). Plates were covered to protect from light and incubated for 40 min at room temperature. Plates were read at ex: 380/em: 485 using Envision microplate reader. PIC50 data, curve and QC analysis were conducted by using XLFit module in Excel.

| SMILES | IC50 [µM] |
| --- | --- |
| CCCCN1CC(Oc2c(F)cc(COc3cc4n(c(=O)n3)C[C@@H]3CCCN43)cc2F)C1 [Example E207, (S)-3-((4-((1-butylazetidin-3-yl)oxy)-3,5-difluorobenzyl)oxy)-7,8,8a,9-tetrahydropyrrolo[1′,2′:3,4]imidazo[1,2-c]pyrimidin-1(6H)-one] | ≤ 10 |
| O=c1nc(OCc2cccc(F)c2F)cc2n1C[C@@H]1CCCN21 [Example E212, (S)-3-((2,3-difluorobenzyl)oxy)-7,8,8a,9-tetrahydropyrrolo[1′,2′:3,4]imidazo[1,2-c]pyrimidin-1(6H)-one] | ≤ 10 |
| O=c1nc(OCc2cccc(F)c2)cc2n1C[C@@H]1CCCN21 [Example E214, (S)-3-((3-fluorobenzyl)oxy)-7,8,8a,9-tetrahydropyrrolo[1,2′:3,4]imidazo[1,2-c]pyrimidin-1(6H)-one] | ≤ 10 |
| O=c1nc(OCc2cc(F)cc(F)c2)cc2n1C[C@@H]1CCCN21 [Example E215, (S)-3-((3,5-difluorobenzyl)oxy)-7,8,8a,9-tetrahydropyrrolo[1′,2′:3,4]imidazo[1,2-c]pyrimidin-1(6H)-one] | ≤ 10 |
| O=c1nc(NCc2ccc(F)cc2F)cc2n1C[C@H]1CCCN21 [Example E216, (R)-3-((2,4-difluorobenzyl)amino)-7,8,8a,9-tetrahydropyrrolo[1,2′:3,4]imidazo[1,2-c] pyrimidin-1(6H)-one] | ≤ 10 |
| O=c1nc(OCc2cc(F)c(F)cc2F)cc2n1C[C@H]1CCCN21 [Example E218, (R)-3-((2,4,5-trifluorobenzyl)oxy)-7,8,8a,9-tetrahydropyrrolo[1′,2′:3,4]imidazo[1,2-c]pyrimidin-1(6H)-one] | ≤ 10 |
| O=c1nc(OCc2cc(F)c(F)cc2F)cc2n1C[C@@H]1COCCN21 [Example E219, (R)-7-((2,4,5-trifluorobenzyl)oxy)-3,4,11,11a-tetrahydropyrimido[6′,1′:2,3]imidazo[5,1-c] [1,4]oxazin-9(1H)-one] | ≤ 10 |
| O=c1nc(OCc2cc(F)c(F)cc2F)cc2n1C[C@H]1COCCN21 [Example E220, (S)-7-((2,4,5-trifluorobenzyl)oxy)-3,4,11,11a-tetrahydropyrimido[6′,1′:2,3]imidazo[5,1-c] [1,4]oxazin-9(1H)-one] | ≤ 10 |
| O=c1nc(OCc2cccc(F)c2F)cc2n1C[C@@H]1COCCN21 [Example E221, (R)-7-((2,3-difluorobenzyl)oxy)-3,4,11,11a-tetrahydropyrimido[6′,1′:2,3]imidazo[5,1-c][1,4]oxazin-9(1H)-one] | ≤ 0.1 |
| O=c1nc(OCc2cc(F)c(F)cc2F)cc2n1C[C@H]1CCCCN21 [Example E225, (R)-3-((2,4,5-trifluorobenzyl)oxy)-6,7,8,9,9a,10-hexahydro-1H-pyrido[1′,2′:3,4]imidazo[1,2-c]pyrimidin-1-one] | ≤ 10 |
| O=c1nc(OCCc2cccc(F)c2)cc2n1C[C@@H]1COCCN21 [Example E246, (R)-7-(3-fluorophenethoxy)-3,4,11,11a-tetrahydropyrimido[6′,1′:2,3]imidazo[5,1-c][1,4] oxazin-9(1H)-one] | ≤ 10 |
| O=c1nc(OCCc2cccc(F)c2)cc2n1C[C@H]1COCCN21 [Example E248, (S)-7-(3-fluorophenethoxy)-3,4,11,11a-tetrahydropyrimido[6′,1′:2,3]imidazo[5,1-c][1,4] oxazin-9(1H)-one] | ≤ 10 |
| O=c1nc(OCCc2cccc(F)c2)cc2n1C[C@H]1CCCN21 [Example E249, (R)-3-(3-fluorophenethoxy)-7,8,8a,9-tetrahydropyrrolo[1′,2′:3,4]imidazo[1,2-c]pyrimidin-1(6H)-one] | ≤ 10 |
| N#Cc1ccc(CCOc2cc3n(c(=O)n2)C[C@H]2CCCN32)cc1 [Example E254, (R)-4-(2-((1-oxo-1,6,7,8,8a,9-hexahydropyrrolo[1′,2′:3,4]imidazo[1,2-c]pyrimidin-3-yl)oxy)ethyl)benzonitrile] | ≤ 10 |
| N#Cc1ccc(CCOc2cc3n(c(=O)n2)C[C@H]2COCCN32)cc1 [Example E255, (S)-4-(2-((9-oxo-1,3,4,9,11,11a-hexahydropyrimido[6′,1′:2,3]imidazo[5,1-c][1,4]oxazin-7-yl)oxy)ethyl)benzonitrile] | ≤ 10 |
| O=c1nc(CCc2cccc(F)c2)cc2n1C[C@@H]1COCCN21 [Example E256, (R)-7-(3-fluorophenethyl)-3,4,11,11a-tetrahydropyrimido[6′,1′:2,3]imidazo[5,1-c][1,4]oxazin-9(1H)-one] | ≤ 10 |
| O=c1nc(CCc2cccc(F)c2)cc2n1C[C@H]1COCCN21 [Example E257, (S)-7-(3-fluorophenethyl)-3,4,11,11a-tetrahydropyrimido[6′,1′:2,3]imidazo[5,1-c][1,4] oxazin-9(1H)-one] | ≤ 10 |
| O=c1nc(OCc2cc(F)c(OC3(CCF)CC3)c(F)c2)cc2n1C[C@@H]1COCCN21 [Example E258, (R)-7-((3,5-difluoro-4-(1-(2-fluoroethyl)cyclopropoxy)benzyl)oxy)-3,4,11,11a-tetrahydropyrimido[6′,1′:2,3]imidazo[5,1-c][1,4]oxazin-9(1H)-one] | ≤ 10 |
| O=c1nc(OCc2cc(F)c(OC3(CCF)CC3)c(F)c2)cc2n1C[C@H]1COCCN21 [Example E262, (S)-7-((3,5-difluoro-4-(1-(2-fluoroethyl)cyclopropoxy)benzyl)oxy)-3,4,11,11a-tetrahydropyrimido[6′,1′:2,3]imidazo[5,1-c][1,4]oxazin-9(1H)-one] | ≤ 10 |
